Like-named read-outs stand apart in the source and are kept apart here.
What was measured:
[1] = tested on: NL4-3 reference virus; test: Recombinant virus assay (RVA): susceptibility to reverse transcriptase inhibitors, single replication cycle, P4 indicator cells; type: cell-based, HIV-1
Procedure: (§1) The determination of the susceptibility of an HIV virus is performed as follows: 293 T cells are transfected with 7.5 μg of pSRT plasmid linearised with NruI, 0.1 μg of pVSV-G plasmid and 0.5 and 1 μg of product from the HIV reverse transcriptase PCR reaction. The transfection precipitate is removed from the cells after 18 hours of incubation and the fresh growth medium is added. After 24 hours of culture, the supernatant is clarified by centrifugation (500 g, 15 minutes) and transferred on P4 indicator cells which have been pre-incubated with serial dilutions of a reverse transcriptase inhibitor, in triplicate wells, for four hours. The range of inhibitor concentrations used varies according to the compounds. The signal produced by activating the marker gene was developed with CPRG for 48 hours, as for the analysis of the susceptibility to a reverse transcriptase inhibitor and the IC50 index was calculated using the median effect equation.
The pSRT plasmid comprising a deletion in the region coding for pol ranging from reverse transcriptase codon 24 (base 2618) to reverse transcriptase codon 432 (base 3872) includes all the mutations associated with a resistance phenomenon known to date. The homologous sequences of the PCR reverse transcriptase product ranging 88 base pairs upstream and 186 base pairs downstream from the deletion in pSRT. The transfections to determine the susceptibility to reverse transcriptase inhibitors are performed with a 293T cell line with a strong capacity to be transfected rather than with HeLa cells. This is not a problem since the cells are eliminated from the supernatant containing the virus by centrifugation before the transfer of P4 cells.
Given that the early phases of virus replication, including reverse transcription, take place in indicator P4 cells in this type of determination, these cells are treated with serial dilutions of reverse transcriptase inhibitors.
(§2) The inhibitor concentration ranges are selected as a function of the cellular toxicity of each compound and the IC50/IC90 ratio for the susceptibility of resistant isolates (Table 1). […] A range of four dilutions in series, starting at 200 μM, was used for abacavir, enabling the detection of up to 60 times more resistance.
For RVA reverse transcriptase, the IC50 index is used rather than the IC90 index since the detection of the IC90 index for resistant viruses could require toxic levels of compound for most reverse transcriptase inhibitors.

[2] = tested on: recombinant virus, specimen R1 (69N/T, 70R); test: RVA susceptibility to RTI, recombinant virus from patient specimen R1; type: cell-based, HIV-1; details: specimen R1, genotype 69N/T, ratio of IC50 of specimen to NL43 in parallel
Procedure: as §1
(§3) The reproducibility of the method to determine the susceptibility of recombinant virus (RVA) to reverse transcriptase inhibitors (RTI) was evaluated with a series of tests on 5 specimens, selected so as to represent a wide range of susceptibility profiles, between 4 and 8 tests per specimen, using RNA preparations and separate PCR reactions.
(§4) (b) The Resistance Index is the ratio of the IC50 in the specimen with reference to that of NL43 determined in parallel.

[3] = tested on: recombinant virus, specimen R5 (215Y, 41L, 74V, 100I, 103N); test: RVA susceptibility to RTI, recombinant virus from patient specimen R5; type: cell-based, HIV-1; details: for Resistance Index (geometric mean): specimen R5, genotype 215Y, 41L, 74V, 100I, 103N, IC50 ratio to NL43, '>' = IC50 above the detectable range in all tests; for susceptibility / level of resistance (in words): specimen R5
Procedure: as §1, §3, §4

[4] = tested on: 22 viruses from specimens of patients with a standard treatment; test: RVA susceptibility to RTI, panel of 22 patient viruses compared with NL43; type: cell-based, HIV-1; details: for median RI (Resistance Index): median over 22 viruses, 3 RVA replicates, reference NL43
Procedure: as §1
To determine whether NL43 is a suitable reference virus for comparison with clinical isolates, a panel of specimens taken from patients with a standard treatment were tested on 3 RVA replicates for their susceptibility to reverse transcriptase inhibitors.

[5] = tested on: P4 cells; type: cell-based; details: cellular toxicity for P4 indicator cells
Procedure: as §2

[6] = tested on: recombinant virus, specimen R2 (multi-compound resistance complex 62V, 75I, 77L, 116Y, 151M; 184V; 181C, 190A); test: RVA susceptibility to RTI, recombinant virus from patient specimen R2; type: cell-based, HIV-1; details: specimen R2, genotype 41L, 67N, 69N, 751, 77L, 115F, 208Y, 215F, 219Q, IC50 ratio to NL43, '>' = IC50 above the detectable range in all tests
Procedure: as §1, §3, §4

[7] = tested on: recombinant virus, specimen R3 (184V, 215F); test: RVA susceptibility to RTI, recombinant virus from patient specimen R3; type: cell-based, HIV-1; details: specimen R3, genotype 184V, 21SF; IC50 ratio to NL43; '>' = IC50 above the detectable range in all tests
Procedure: as §1, §3, §4

[8] = tested on: recombinant virus, specimen R4 (41L, 67N, 69D, 184V, 190A, H208Y, 210W, 215Y); test: RVA susceptibility to RTI, recombinant virus from patient specimen R4; type: cell-based, HIV-1; details: specimen R4, genotype 41L, IC50 ratio to NL43, '>' = IC50 above the detectable range in all tests
Procedure: as §1, §3, §4

[9] = tested on: resistant virus LAI-L91H; test: Susceptibility of recombinant HIV viruses to fusion inhibitors: LAI-L91H; type: cell-based, HIV-1; details: reference virus not given
Source text: (§5) The invention also relates to an analytical method to determine the susceptibility of an HIV virus to a fusion inhibiting compound targeting HIV-1 gp41 protein, consisting of performing the amplification in step b either with the pair of primers SEQ ID NO: 13, SEQ ID No: 14 followed by a second amplification with the pair of primers SEQ ID No: 15, SEQ ID No: 16, or with the pair of primers SEQ ID No: 17, SEQ ID No: 18 followed by a second amplification with the pair of primers SEQ ID No: 18, SEQ ID No: 16, adding said fusion inhibiting compound or not, possibly at different concentrations, during the culture of the cell host obtained in step e, before step f and comprising in step g the comparison of the expression of the marker gene with and without fusion inhibiting compound targeting HIV-1 gp41.
The recombinations obtained by performing the amplification of the step (b) with the pair of primers FuA: 5′[…]3′ (SEQ ID No: 23) et FuB: 5′ […]3′ (SEQ ID No: 24) followed by a second amplification step, performed with the primer FuC: 5′[…]3′ (SEQ ID No: 25) and a mixture of the following primers: FuD1: 5′[…]3′ (SEQ ID No: 26) FuD2: 5′[…]3′ (SEQ ID No: 27) are highly efficient. […]
The increase of the IC50index of the resistant virus LAI-L91H (Labrosse B. et al. J Virol. 2000 vol 74 pages 2142-2150) by reference to RPR103611 has been measured.

[10] = tested on: highly resistant virus NL-DIM; test: Susceptibility of recombinant HIV viruses to fusion inhibitors: NL-DIM; type: cell-based, HIV-1
Source text: as §5, with “gp41. […]” for “gp41.”
(§6) The IC50 index for a highly resistant virus NL-DIM ( Rimski L. T. et al. J. Virol. 1998, vol 72, pages 986-993) and for the NL4.3 virus (which is partially resistant) has been measured by reference to the DP178 inhibitor.

[11] = tested on: NL4.3 virus (partially resistant); test: Susceptibility of recombinant HIV viruses to fusion inhibitors: NL4.3; type: cell-based, HIV-1
Source text: as §5, with “gp41. […]” for “gp41.”
as §6

[12] = Human immunodeficiency virus 1, NL43, NL4-3 reference virus, P4 cells, geometric mean of 20 repeated tests, read-out: Geometric mean IC50
[13] = Human immunodeficiency virus 1, NL43, read-out: Geometric mean IC50

`Nc1ccn([C@@H]2CS[C@H](CO)O2)c(=O)n1` [3TC, lamivudine] was tested. Which IC50 [1, 12] did it give?
Its IC50 is 1510 nM.

And the “Resistance Index (geometric mean)” value [2]?
The value was 1.3.

What about the “Resistance Index (geometric mean)” value [3] of the same molecule?
Its value is 1.8.

What about the “median RI (Resistance Index)” value [4] of the same molecule?
Its value is about 1.22.

`Cc1cn([C@H]2C[C@H](N=[N+]=[N-])[C@@H](CO)O2)c(=O)[nH]c1=O` [AZT, zidovudine] was tested. Which IC50 [1, 12] did it give?
The IC50 was 18 nM.

And the “susceptibility / level of resistance (in words)” value (shortened to “susceptibility / level”) [3]?
Its value is “remains susceptible”.

Which results are given for `Nc1nc(NC2CC2)c2ncn([C@H]3C=C[C@@H](CO)C3)c2n1` [Abacavir, abacavir]?
IC50 [1, 12]: 2230 nM; IC50 index / toxicity for P4 cells [5]: approximately 250 μM; Resistance Index (geometric mean) [2]: 1.1; Resistance Index (geometric mean) [6]: >; Resistance Index (geometric mean) [7]: 4.3; Resistance Index (geometric mean) [8]: 4.3; Resistance Index (geometric mean) [3]: 1.7

For `Cc1cn([C@H]2C=C[C@@H](CO)O2)c(=O)[nH]c1=O` [D4T, stavudine], which IC50 [1, 13] is on record?
The IC50 was 444 nM.

And the “Resistance Index (geometric mean)” value [2]?
Its value is 1.4.

What about the “Resistance Index (geometric mean)” value [6] of the same molecule?
Its value is 43.5.

And the “Resistance Index (geometric mean)” value [7]?
The value was 3.2.

What about the “Resistance Index (geometric mean)” value [8] of the same molecule?
The value was 3.6.

And the “Resistance Index (geometric mean)” value [3]?
Its value is 1.7.

What about the “median RI (Resistance Index)” value [4] of the same molecule?
Its value is “approximately 0.92”.

Which IC50 ([1]; NL4-3 reference virus, P4 cells, geometric mean of 20 repeated tests, read-out: Geometric mean IC50) does the source give for `O=c1[nH]cnc2c1ncn2[C@H]1CC[C@@H](CO)O1` [DDI] here?
The IC50 was 1610 nM.

What about the “Resistance Index (geometric mean)” value [2] of the same molecule?
The value was 1.4.

And the “Resistance Index (geometric mean)” value [6]?
The value was 26.9.

And the “Resistance Index (geometric mean)” value [7]?
Its value is 3.1.

And the “Resistance Index (geometric mean)” value [8]?
The value was 3.1.

What about the “Resistance Index (geometric mean)” value [3] of the same molecule?
Its value is 2.6.

How did the IC50 [1, 13] turn out when `O=C1Nc2ccc(Cl)cc2[C@@](C#CC2CC2)(C(F)(F)F)O1` [Efavirenz, efavirenz] was run?
Its IC50 is 716 nM.

What about the “Resistance Index (geometric mean)” value [2] of the same molecule?
The value was 1.0.

And the “Resistance Index (geometric mean)” value [6]?
The value was 74.9.

What about the “Resistance Index (geometric mean)” value [7] of the same molecule?
The value was 1.0.

And the “Resistance Index (geometric mean)” value [8]?
Its value is 1.0.

What about the “susceptibility / level” value [3] of the same molecule?
The value was “high levels of resistance”.

What about the “Resistance Index (geometric mean)” value [3] of the same molecule?
The value was “>”.

`Cc1ccnc2c1NC(=O)c1cccnc1N2C1CC1` [Nevirapine, nevirapine] was tested. Which IC50 [1, 12] did it give?
Its IC50 is 37 nM.

What about the “Resistance Index (geometric mean)” value [2] of the same molecule?
Its value is 2.2.

And the “Resistance Index (geometric mean)” value [6]?
The value was “>”.

What about the “Resistance Index (geometric mean)” value [7] of the same molecule?
The value was 1.2.

What about the “Resistance Index (geometric mean)” value [8] of the same molecule?
The value was 1.2.

What about the “susceptibility / level” value [3] of the same molecule?
The value was “high levels of resistance”.

And the “Resistance Index (geometric mean)” value [3]?
Its value is 580.5.

What about the resistance index ([4]; one virus of the panel with mutation on codon 98 (A for S) of reverse transcriptase) of the same molecule?
The resistance index was 11.0.

How did the “increase of IC50 index” value [9] turn out when `C=C(C)[C@@H]1CC[C@]2(C(=O)NCCCCCCCC(=O)N[C@@H](CC(C)C)[C@@H](O)CC(=O)O)CC[C@]3(C)[C@H](CC[C@@H]4[C@@]5(C)CC[C@H](O)C(C)(C)[C@@H]5CC[C@]43C)[C@@H]12` [RPR103611] was run?
The value was “more than 100 times”.

Which results are given for enfuvirtide?
increase of IC50 index ([10]; NL-DIM by reference to LAI virus (culture adapted)): more than 100 times; increase of IC50 index ([10]; NL-DIM by reference to T5A1 virus (primary plasma virus)): more than 80 times; increase of IC50 index ([11]; NL4.3 by reference to LAI): 12,5 times; increase of IC50 index ([11]; NL4.3 by reference to T5A1 virus): 10 times

— patent US20040053219A1, “Method for analysing human immunodeficiency virus (HIV) phenotypic characteristics” (priority 2000, published 2004)
